Source: PubChem BioAssay AID1648 (Sanford-Burnham Center for Chemical Genomics, 2009)
Activity calls are given as the source filed them. No rule for the calls is given here.

Biological target: Serine/threonine-protein kinase mTOR (Homo sapiens) (UniProt P42345)
Assay: binders of mTOR FRB domain, biophysical, NMR (AID 1648)
Settings: NMR binding to FRB domain, chemical shift

Chain of Serine/threonine-protein kinase mTOR (Homo sapiens) (P42345 2015-2114): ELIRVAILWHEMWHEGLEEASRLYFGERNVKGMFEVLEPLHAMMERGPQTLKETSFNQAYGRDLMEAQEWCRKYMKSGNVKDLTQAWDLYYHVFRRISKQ

Compound | Kd
Cc1nnc(NCCCO)[nH]c1=O | > 4 mM (inactive)
O=C(O)/C=C1\NC(=O)c2ccccc21 | > 4 mM (inactive)
CC(=O)O[C@H]1CC[C@@]2(C)C(CC[C@]3(C)C2C(=O)C=C2C4[C@@H](C)[C@H](C)CC[C@]4(C(=O)O)CC[C@]23C)C1(C)C (stereo partly specified) | > 4 mM (inactive)
O=C(Nc1nncs1)Oc1ccccc1 | > 4 mM (inactive)
NC(=O)CNC(=O)c1ccccc1 | > 4 mM (inactive)
CC1=CC2C(CC1=O)C(C)=CCC2C(C)C (stereo unspecified) | > 4 mM (inactive)
COC(=O)c1ccc(N2CCOCC2)nc1 | > 4 mM (inactive)
O=C1C2C3C=CC(C3)C2C(=O)N1c1nccs1 (stereo unspecified) | > 4 mM (inactive)
O=C(Nc1nnc(-c2ccncc2)o1)c1cccs1 | > 4 mM (inactive)
O=C(NN=C1CCCC1)c1ccncc1 | > 4 mM (inactive)
O=C(NCCO)NC(=S)c1ccccc1 | > 4 mM (inactive)
O=C(CS(=O)(=O)c1ccccc1)Nc1nccs1 | > 4 mM (inactive)
CN1CC(=O)Nc2ccc([N+](=O)[O-])cc2C1=O | > 4 mM (inactive)
O=C1CC(=O)N(c2ccccc2F)C(=S)N1 | > 4 mM (inactive)
Cn1nnc2cc(CO)ccc21 | > 4 mM (inactive)
O=c1[nH]cc(N=Cc2ccc(F)cc2)c(=O)[nH]1 | > 4 mM (inactive)
CC(C)NC(=O)c1cc(-n2cnnc2)ccc1Cl | > 4 mM (inactive)
NC(=O)C1CCN(CN2C(=O)c3ccccc3C2=O)CC1 | > 4 mM (inactive)
Nc1nc(-c2ccc(F)c(F)c2)cs1 | > 4 mM (inactive)
COC1CC(O[C@H]2CC[C@]3(C=O)C4CC[C@]5(C)C(C6=CC(=O)OC6)CC[C@]5(O)C4CC[C@]3(O)C2)OC(C)C1O (stereo partly specified) | > 4 mM (inactive)
CC(C)c1ccc(NC(=O)C(N)=O)cc1 | > 4 mM (inactive)
O=C1C=CC(=O)N1c1ccccc1O | > 4 mM (inactive)
Cc1c(-c2ccccc2)[n+](=O)c(-c2ccco2)c(C)n1[O-] | > 4 mM (inactive)
COc1ccc(/C=N/n2cn[nH]c2=S)cc1 | > 4 mM (inactive)

Compound | Kd
COc1ccc(Cl)cc1-c1n[nH]c(=S)n1C | > 4 mM (inactive)
c1cnc(N2CCSCC2)nc1 | > 4 mM (inactive)
CC1Cc2nc(SCC(N)=O)n(C)c(=O)c2S1 (stereo unspecified) | > 4 mM (inactive)
NC1=NN(c2ccccc2)C(=O)C1 | > 4 mM (inactive)
CC1=CC(=O)C2C(C)(C)CCC[C@]2(C)[C@@]1(O)CCc1ccoc1 (stereo partly specified) | > 4 mM (inactive)
O=C1C=CC(=O)N1c1ccc(N2CCOCC2)cc1 | > 4 mM (inactive)
O=C(Oc1ccc(-c2nnco2)cc1)N1CCOCC1 | > 4 mM (inactive)
CC(=O)C1CC[C@H]2C3CC[C@H]4C[C@H](O)CC[C@]4(C)C3CC[C@]12C (stereo partly specified) | > 4 mM (inactive)
CCOc1cc(S(=O)(=O)N2CCOCC2)ccc1F | > 4 mM (inactive)
Cc1nn(-c2ccccc2)nc1CN | > 4 mM (inactive)
Nc1cc(C(=O)N2CCCC2)cc(C(=O)N2CCCC2)c1 | > 4 mM (inactive)
CCCCCC(=O)Cc1cc(O)cc(O)c1C(=O)Oc1cc(CC(=O)CCCCC)c(C(=O)O)c(OC)c1 | > 4 mM (inactive)
COc1cc2c3cc1Oc1c(OC)c(OC)cc4c1[C@@H](Cc1cccc(c1)Oc1ccc(c(O)c1)C[C@@H]3N(C)CC2)N(C)CC4 | > 4 mM (inactive)
c1ccc(CCc2nc(-c3ccncc3)no2)cc1 | > 4 mM (inactive)
Cc1ncc(C[n+]2csc3ccccc32)c(N)n1 | > 4 mM (inactive)
CSc1nc(=O)[nH]c2c1CCC2 | > 4 mM (inactive)
CC(=O)OCC(=O)[C@@]1(O)CCC2C3CC[C@@H]4C[C@H](O)CC[C@]4(C)C3C(=O)C[C@@]21C (stereo partly specified) | > 4 mM (inactive)
O=C(Nc1nnc(C(F)(F)F)s1)c1cccnc1 | > 4 mM (inactive)
Cc1nnsc1C(=O)Nc1ccccn1 | > 4 mM (inactive)
COC(=O)N(c1ccccc1)P1(=S)OCCO1 | > 4 mM (inactive)
O=C1NC(=O)C(C(C[N+](=O)[O-])c2ccc(O)cc2)C(=O)N1 (stereo unspecified) | > 4 mM (inactive)
[O-][n+]1cc(O)c(CN2CCOCC2)c2ccccc21 | > 4 mM (inactive)
CC(=O)OCC(=O)[C@@]1(O)CCC2C3CC[C@@H]4C[C@H](OC(C)=O)CC[C@]4(C)C3C(=O)C[C@@]21C (stereo partly specified) | > 4 mM (inactive)
CNC(=O)c1cc(S(=O)(=O)N(C)C)ccc1Cl | > 4 mM (inactive)

Compound | Kd
CC1(C)Cc2c(c(-c3ccco3)[nH]c(=O)c2C#N)CO1 | > 4 mM (inactive)
Cc1cc(C(=O)O)n[nH]1 | > 4 mM (inactive)
C=CCc1cc(C(=O)N2CCCCC2)ccc1O | > 4 mM (inactive)
c1ccc(SCc2nc(-c3cccnc3)no2)cc1 | > 4 mM (inactive)
CC(=O)NC12CC3CC(CC(O)(C3)C1)C2 | > 4 mM (inactive)
O=C(/C=C1\SC(=O)NC1=O)NCc1ccccc1 | > 4 mM (inactive)
CCc1nnc(NC(C)=O)s1 | > 4 mM (inactive)
Cc1cc(=O)cc(C)n1NC(N)=S | > 4 mM (inactive)
COc1ccc(-c2coc3cc(OC(C)=O)cc(OC(C)=O)c3c2=O)cc1 | > 4 mM (inactive)
OC(c1ccccc1)c1ccccn1 (stereo unspecified) | > 4 mM (inactive)
C/C=C/c1ccc2c(c1)OCO2 | > 4 mM (inactive)
CC1(C)Cc2cccc(CO)c2O1 | > 4 mM (inactive)
COC(=O)C(O)c1ccccc1 (stereo unspecified) | > 4 mM (inactive)
CC(=O)O[C@@H]1CC2C(C)(C)[C@H](O)C[C@H](O)[C@]2(C)C2CC[C@@]3(C)C(=CC(=O)O[C@H]3c3ccoc3)[C@@]21C (stereo partly specified) | > 4 mM (inactive)
CCc1noc(C)c1C(=O)Nc1ncc(C)s1 | > 4 mM (inactive)
CCOC(=O)c1c[nH]c2c(F)cccc2c1=O | > 4 mM (inactive)
CC(=O)c1cc(CN2C(=O)c3ccccc3C2=O)cs1 | > 4 mM (inactive)
CC1CCN(C(=S)c2ccccc2O)CC1 | > 4 mM (inactive)
Cc1nnsc1C(=O)O | > 4 mM (inactive)
O=C(O)c1ccc(-c2cccs2)s1 | > 4 mM (inactive)
CC(=O)NC(=S)Nc1ccccc1C | > 4 mM (inactive)
Nc1nnc(C(F)(F)F)s1 | > 4 mM (inactive)
CCOC(=O)CSCC(=O)Nc1nccs1 | > 4 mM (inactive)
CCn1c(-c2c[nH]c3ccccc23)n[nH]c1=S | > 4 mM (inactive)

Compound | Kd
COC(=O)c1ccccc1NC(=O)c1cc[n+]([O-])cc1 | > 4 mM (inactive)
Cc1cc(-c2ccccc2)nc2cc(C(N)=O)nn12 | > 4 mM (inactive)
c1ccc(-c2csc3ncn4nnnc4c23)cc1 | > 4 mM (inactive)
COc1ccc(C2(C)NC(=O)NC2=O)cc1 (stereo unspecified) | > 4 mM (inactive)
N/N=C/c1cccnc1 | > 4 mM (inactive)
Cc1nc2c(n1O)CCc1c-2no[n+]1[O-] | > 4 mM (inactive)
Nc1ccc(S(=O)(=O)Nc2nccs2)cc1 | > 4 mM (inactive)
CSc1nc(O)cc(=O)[nH]1 | > 4 mM (inactive)
c1ccc(CN2CCC3(CC2)Nc2ccccc2CO3)cc1 | > 4 mM (inactive)
Nc1ccc2c(c1)OCCO2 | > 4 mM (inactive)
C[C@H]1C[C@@H](O)[C@]2(O)[C@@]13CC(=O)OC[C@@]2(C)[C@](C)(O)C(=O)C3 | > 4 mM (inactive)
CS(=O)(=O)Nc1cc2c3c(c1)CCN3C(=O)CC2 | > 4 mM (inactive)
O=C(Nc1ccc2c(c1)OCCO2)c1c(F)cccc1F | > 4 mM (inactive)
O=C(O)c1cccc(CSc2ncccn2)c1 | > 4 mM (inactive)
COc1ccc(-c2cc(=O)c3ccccc3o2)cc1OC | > 4 mM (inactive)
COc1ccc([C@@H]2CC(=O)c3c(O)cc(O)cc3O2)cc1O | > 4 mM (inactive)
CSc1nc2nc(C)cc(=O)n2[nH]1 | > 4 mM (inactive)
O=C(NC1=NCCS1)c1csc2ccccc12 | > 4 mM (inactive)
COc1ccc2c(c1)OC[C@@H](Cc1ccc(OC)c(OC)c1)[C@H]2O | > 4 mM (inactive)
CSc1cc(C)[nH]c(=O)n1 | > 4 mM (inactive)
OCc1ccc2c(c1)OCCO2 | > 4 mM (inactive)
CN1C(=O)Cc2cc(S(N)(=O)=O)ccc21 | > 4 mM (inactive)
COc1cc(-c2nnc(NC(C)=O)o2)cc(OC)c1OC | > 4 mM (inactive)
CC1(C)C2CC(=O)[C@]3(C)C(CC[C@@]4(C)[C@H](c5ccoc5)OC(=O)[C@H]5O[C@]543)[C@@]2(C)C=C[C@@H]1O (stereo partly specified) | > 4 mM (inactive)

Compound | Kd
OC1CCN(Cc2ccc[nH]2)CC1 | > 4 mM (inactive)
Cc1nn2c(=O)c(NC(=O)c3ccccc3)cnc2s1 | > 4 mM (inactive)
Fc1cc2nccnc2cc1N1CCSCC1 | > 4 mM (inactive)
COC(=O)NCc1cc2cc(Cl)ccc2[nH]1 | > 4 mM (inactive)
NC1=NC(=O)/C(=C\c2cccnc2)S1 | > 4 mM (inactive)
CC(=O)c1cc(C)ccc1OC(=O)c1cccnc1 | > 4 mM (inactive)
COc1cc(-c2coc3cc(OCc4ccccc4)c(OC)c(O)c3c2=O)cc(O)c1OC | > 4 mM (inactive)
Cc1cc(C)cc(OC(=O)N2CCOCC2)c1 | > 4 mM (inactive)
NC(=O)C1CCN(C(=O)c2ccccc2F)CC1 | > 4 mM (inactive)
CC[C@H]1CN2CCc3cc(OC)c(OC)cc3C2C[C@@H]1CC1NCCc2cc(OC)c(OC)cc21 (stereo partly specified) | > 4 mM (inactive)
CN1C(=O)c2ccc(C(=O)NCc3ccccc3)cc2C1=O | > 4 mM (inactive)
Nc1ccc2[nH]ncc2c1 | > 4 mM (inactive)
CNC(=O)c1cc(C)c(-c2ccccc2)s1 | > 4 mM (inactive)
C=C(C)[C@@H]1CC[C@]2(CO)CC[C@]3(C)[C@H](CCC4[C@@]5(C)CC[C@H](O)C(C)(C)C5CC[C@]43C)C12 (stereo partly specified) | > 4 mM (inactive)
Clc1ccc(-c2noc(CN3CCCC3)n2)cc1 | > 4 mM (inactive)
CCSc1nc(=S)n(CC)c(C)c1C(C)=O | > 4 mM (inactive)
O=C(O)c1ccc(-n2ccnc2)cc1 | > 4 mM (inactive)
Cc1sc2nc(NCCO)[nH]c(=O)c2c1C | > 4 mM (inactive)
CCn1c(C)c(C(C)=O)c(N2CCN(C)CC2)nc1=S | > 4 mM (inactive)
Nc1nc2ccc(N3CCOCC3)cc2s1 | > 4 mM (inactive)
